Patent US8735425B2, “Tetrahydroisoquinoline derivative” (Daiichi Sankyo Company, Limited, priority 2008, dated 2014)

Biological target: T1, DGAT1 enzyme (Homo sapiens, UniProt O75907)
T1 construct: made in house
T1 sequence (O75907 1-488): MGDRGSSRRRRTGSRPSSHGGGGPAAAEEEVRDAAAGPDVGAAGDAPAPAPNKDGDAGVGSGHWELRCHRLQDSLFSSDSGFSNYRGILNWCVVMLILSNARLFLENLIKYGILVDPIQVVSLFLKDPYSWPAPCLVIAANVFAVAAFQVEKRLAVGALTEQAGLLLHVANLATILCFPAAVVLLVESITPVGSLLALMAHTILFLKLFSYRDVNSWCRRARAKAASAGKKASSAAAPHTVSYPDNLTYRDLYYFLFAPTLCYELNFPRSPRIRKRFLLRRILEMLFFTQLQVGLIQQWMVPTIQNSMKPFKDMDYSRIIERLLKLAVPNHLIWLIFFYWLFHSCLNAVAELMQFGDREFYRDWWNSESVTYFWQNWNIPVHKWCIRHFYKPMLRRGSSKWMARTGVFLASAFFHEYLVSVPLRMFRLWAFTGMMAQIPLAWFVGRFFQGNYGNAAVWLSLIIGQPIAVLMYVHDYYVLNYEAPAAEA
Experiment: DGAT1 inhibitory activity test
Assay type: biochemical
Conditions: test compound concentration of 0.05 μg/ml; read-out: Inhibitory Rate
Description: DGAT1 enzyme was prepared and stored according to the method described in US2007/0249620.
(2) DGAT1 Inhibitory Activity Test
A reaction solution having the following composition was incubated at room temperature (23° C.) for 30 minutes: 175 mM Tris-HCl (pH 8.0), 8 mM MgCl2, 1 mg/ml BSA, 0.3 mM 1,2-dioleoyl-sn-glycerol (10-fold concentration of EtOH solution, 10% added), 10 μM [^14C]-oleoyl-CoA (approximately 50 mCi/mmol), 0.5% Triton X-100, the DGAT1 enzyme (10 μg) obtained in Test Example 1(1), and a test compound or vehicle (DMSO/MeOH, 7:3 solution, 5% added), […] in total. A reaction stop solution ([…] consisting of isopropanol/1-heptane/water (80:20:2, v/v/v) was added to the reaction solution and stirred. Subsequently, water (30 μl) and 1-heptane (100 μl) were added thereto and stirred. The 1-heptane layer (50 μl) was spotted onto a TLC plate and developed with a developing solvent consisting of 1-hexane/diethyl ether/acetic acid (85:15:1, v/v/v). The radioactivity of the triglyceride fraction was quantified using BAS2000 Bio Image Analyzer (FUJIFILM) and compared with the control. The inhibitory activity of the test compound was calculated according to the formula shown below. In this context, the radioactivity at no reaction (0 minute incubation) was used as background. Inhibitory Rate=100−[(Radioactivity of sample supplemented with test compound)−(Background)]/[(Radioactivity of control)−(Background)]×100

Row | inhibition at 0.05 µg/mL | Structure (SMILES)
1 | ≥ 50% | O=C(O)C[C@@H]1CC[C@H](OC(=O)N2CCc3cc(NC(=O)Nc4ccccc4F)ccc3C2)C1 (relative stereo) [Example 6, cis-6-[3-(2-fluoro-phenyl)-ureido]-3,4-dihydro-1H-isoquinoline-2-carboxylic acid 3-carboxymethyl-cyclopentyl ester]
2 | ≥ 50% | C[C@H]1C[C@@H](CC(=O)O)CC[C@H]1OC(=O)N1CCc2cc(NC(=O)Nc3ccccc3F)ccc2C1 (relative stereo) [Example 14, 6-[3-(2-fluoro-phenyl)-ureido]-3,4-dihydro-1H-isoquinoline-2-carboxylic acid c-4-carboxymethyl-c-2-methyl-r-1-cyclohexyl ester]
3 | ≥ 50% | O=C(O)C[C@H]1CC[C@@H](OC(=O)N2CCc3cc(NC(=O)Nc4ccccc4F)ccc3C2)CC1 [Example 3, cis-6-[3-(2-fluoro-phenyl)-ureido]-3,4-dihydro-1H-isoquinoline-2-carboxylic acid 4-carboxymethyl-cyclohexyl ester]
4 | ≥ 50% | O=C(Nc1ccc2c(c1)CCN(C(=O)O[C@H]1CC[C@@H](C(=O)O)CC1)C2)Nc1ccccc1F [Example 9, cis-6-[3-(2-fluoro-phenyl)-ureido]-3,4-dihydro-1H-isoquinoline-2-carboxylic acid 4-carboxy-cyclohexyl ester]
5 | ≥ 50% | NC(=O)C[C@H]1CC[C@H](OC(=O)N2CCc3cc(NC(=O)Nc4ccccc4F)ccc3C2)CC1 [Example 18, trans-6-[3-(2-fluoro-phenyl)-ureido]-3,4-dihydro-1H-isoquinoline-2-carboxylic acid 4-carbamoylmethyl-cyclohexyl ester]
6 | ≥ 50% | CC(C)(NC(=O)C[C@H]1CC[C@H](OC(=O)N2CCc3cc(NC(=O)Nc4ccccc4F)ccc3C2)CC1)C(=O)O [Example 19, trans-6-[3-(2-fluoro-phenyl)-ureido]-3,4-dihydro-1H-isoquinoline-2-carboxylic acid 4-[(1-carboxy-1-methyl-1-ethylcarbamoyl)-methyl]-cyclohexyl ester]
7 | ≥ 50% | CN(C)C(=O)C[C@H]1CC[C@H](OC(=O)N2CCc3cc(NC(=O)Nc4ccccc4F)ccc3C2)CC1 [Example 33, trans-6-[3-(2-fluoro-phenyl)-ureido]-3,4-dihydro-1H-isoquinoline-2-carboxylic acid 4-dimethylcarbamoylmethyl-cyclohexyl ester]
8 | ≥ 50% | CNC(=O)C[C@H]1CC[C@H](OC(=O)N2CCc3cc(NC(=O)Nc4ccccc4F)ccc3C2)CC1 [Example 34, trans-6-[3-(2-fluoro-phenyl)-ureido]-3,4-dihydro-1H-isoquinoline-2-carboxylic acid 4-methylcarbamoylmethyl-cyclohexyl ester]
9 | ≥ 50% | O=C(O)CNC(=O)C[C@H]1CC[C@H](OC(=O)N2CCc3cc(NC(=O)Nc4ccccc4F)ccc3C2)CC1 [Example 35, trans-6-[3-(2-fluoro-phenyl)-ureido]-3,4-dihydro-1H-isoquinoline-2-carboxylic acid 4-[(carboxymethyl-carbamoyl)-methyl]-cyclohexyl ester]
10 | ≥ 50% | CC(NC(=O)C[C@H]1CC[C@H](OC(=O)N2CCc3cc(NC(=O)Nc4ccccc4F)ccc3C2)CC1)C(=O)O (stereo partly drawn) [Example 36, trans-6-[3-(2-fluoro-phenyl)-ureido]-3,4-dihydro-1H-isoquinoline-2-carboxylic acid 4-[(1-carboxy-ethylcarbamoyl)-methyl]-cyclohexyl ester]
11 | ≥ 50% | O=C(C[C@H]1CC[C@H](OC(=O)N2CCc3cc(NC(=O)Nc4ccccc4F)ccc3C2)CC1)NC1(C(=O)O)CC1 [Example 37, trans-6-[3-(2-fluoro-phenyl)-ureido]-3,4-dihydro-1H-isoquinoline-2-carboxylic acid 4-[(1-carboxy-cyclopropylcarbamoyl)-methyl]-cyclohexyl ester]
12 | ≥ 50% | O=C(Nc1ccc2c(c1)CCN(C(=O)O[C@H]1CC[C@H](CC(=O)N3CCCC3C(=O)O)CC1)C2)Nc1ccccc1F (stereo partly drawn) [Example 38, trans-6-[3-(2-fluoro-phenyl)-ureido]-3,4-dihydro-1H-isoquinoline-2-carboxylic acid 4-[2-(2-carboxy-pyrrolidin-1-yl)-2-oxo-ethyl]-cyclohexyl ester]
13 | ≥ 50% | O=C(Nc1ccc2c(c1)CCN(C(=O)O[C@H]1CC[C@H](Cc3nc(C(=O)O)co3)CC1)C2)Nc1ccccc1F [Example 39, trans-6-[3-(2-fluoro-phenyl)-ureido]-3,4-dihydro-1H-isoquinoline-2-carboxylic acid 4-(4-carboxy-oxazol-2-ylmethyl)-cyclohexyl ester]
14 | ≥ 50% | O=C(C[C@H]1CC[C@H](OC(=O)N2CCc3cc(NC(=O)Nc4ccccc4F)ccc3C2)CC1)Nc1nnn[nH]1 [Example 40, trans-6-[3-(2-fluoro-phenyl)-ureido]-3,4-dihydro-1H-isoquinoline-2-carboxylic acid 4-[(1H-tetrazol-5-ylcarbamoyl)-methyl]-cyclohexyl ester]
15 | ≥ 50% | O=C(Nc1ccc2c(c1)CCN(C(=O)O[C@H]1CC[C@H](Cc3cc(O)n[nH]3)CC1)C2)Nc1ccccc1F [Example 42, trans-6-[3-(2-fluoro-phenyl)-ureido]-3,4-dihydro-1H-isoquinoline-2-carboxylic acid 4-(5-hydroxy-2H-pyrazol-3-ylmethyl)-cyclohexyl ester]
16 | ≥ 50% | C[S+]([O-])c1cccc(NC(=O)Nc2ccc3c(c2)CCN(C(=O)O[C@H]2CC[C@H](CC(=O)O)CC2)C3)c1 (stereo partly drawn) [Example 65, trans-6-[3-(3-methanesulfinyl-phenyl)-ureido]-3,4-dihydro-1H-isoquinoline-2-carboxylic acid 4-carboxymethyl-cyclohexyl ester]
17 | ≥ 50% | COc1ccc(NC(=O)Nc2ccc3c(c2)CCN(C(=O)O[C@H]2CC[C@H](CC(=O)O)CC2)C3)cc1 [Example 79, trans-6-[3-(4-methoxy-phenyl)-ureido]-3,4-dihydro-1H-isoquinoline-2-carboxylic acid 4-carboxymethyl-cyclohexyl ester]
18 | ≥ 50% | O=C(O)C[C@H]1CC[C@H](OC(=O)N2CCc3cc(NC(=O)Nc4cncc(Cl)c4)ccc3C2)CC1 [Example 93, trans-6-[3-(5-chloro-pyridin-3-yl)-ureido]-3,4-dihydro-1H-isoquinoline-2-carboxylic acid 4-carboxymethyl-cyclohexyl ester]
19 | ≥ 50% | O=C(O)C[C@H]1CC[C@H](OC(=O)N2CCc3cc(NC(=O)Nc4cnccn4)ccc3C2)CC1 [Example 94, trans-6-(3-pyrazin-2-yl-ureido)-3,4-dihydro-1H-isoquinoline-2-carboxylic acid 4-carboxymethyl-cyclohexyl ester]
20 | ≥ 50% | O=C(O)C[C@H]1CC[C@H](OC(=O)N2CCc3cc(Nc4nc5ccccc5s4)ccc3C2)CC1 [Example 98, trans-6-(benzothiazol-2-ylamino)-3,4-dihydro-1H-isoquinoline-2-carboxylic acid 4-carboxymethyl-cyclohexyl ester]
21 | ≥ 50% | COc1cccc(NC(=O)Nc2ccc3c(c2)CCN(C(=O)C(C)C2CCC(CC(=O)O)CC2)C3)c1 (stereo not drawn) [Example 106, [4-(2-{6-[3-(3-methoxy-phenyl)-ureido]-3,4-dihydro-1H-isoquinolin-2-yl}-1-methyl-2-oxy-ethyl)-cyclohexyl]-acetic acid]
